Reference: patent publication US20250340551A1, “SMALL MOLECULE MODULATORS OF STAT6” (Gilead Sciences, Inc., priority 2024, published 2025)
pEC50: −log10 of the molar value.

System: Eotaxin-3 (CCL26) release in human whole blood stimulated with IL-4
Assay: Human whole blood eotaxin-3 assay (IL-4 stimulated, Eotaxin-3 release)
Assay type: cell-based
Conditions: Homo sapiens, 48 h
Experimental: This was a human whole blood assay using recombinant human Interleukin 4 to stimulate the blood and measuring the ability of the test compounds to inhibit eotaxin-3 release. The biological activities of the test compounds have been tested in human whole blood stimulated with IL-4 measuring Eotaxin-3 release. The test compounds were added to 384 well clear flat-bottom plate in a 4-fold serial dilution in triplicates using a liquid handler. Human whole blood stabilized in lithium-heparin tubes was added in a volume of 65 μL per well, resulting in a final DMSO concentration of 0.5%. The plate is incubated for 2 h at 37° C. under 5% CO2/95% air. Subsequently, 5 μL of recombinant human IL-4 (R&D Systems, cat #204-ILB) was added to the wells to a final concentration of 400 pM. The plate was incubated for 48 h at 37° C. under 5% CO2/95% air. The plate was spun down for 10 minutes at 500×g and 20 μL supernatant was harvested and transferred to a 384 well v-bottom plate using a liquid handler and stored at −20° C. until further analysis. 10 μL supernatant was used to measure the level of Eotaxin-3 (CCL26) using Human Eotaxin-3 MSD kit from Mesocsale (Cat #K251UEK-4). The assay was performed according to the manufacture instructions.
The data from the human whole blood eotaxin-3 assay is shown below for Examples 1u2, 1x1, 1af26, and 1af36 (where the effect in % is plotted against the test concentration in M on a log-scale).

| SMILES | Emax [%] |
| --- | --- |
| [2H]C([2H])([2H])N(C(=O)c1ccc(C2CCN([C@@H](C)c3cc4c(-c5cnc(N)cc5C#N)ccnc4n3C)CC2)cc1)C([2H])([2H])[2H] [Example 1af70, (S)-4-(1-(1-(4-(6-amino-4-cyanopyridin-3-yl)-1-methyl-1H-pyrrolo[2,3-b]pyridin-2-yl)ethyl)piperidin-4-yl)-N,N-bis(methyl-d3)benzamide] | 30 to 40 |

Same assay, conditions: Homo sapiens, Hec50, 48 h

| SMILES | pEC50 |
| --- | --- |
| [2H]C([2H])([2H])N(C(=O)c1ccc(C2CCN([C@H](C)c3cc4c(-c5ccc(N)cn5)ccnc4n3C)CC2)c(C)c1)C([2H])([2H])[2H] [Example 1af42, (R)-4-(1-(1-(4-(5-amino-pyridin-2-yl)-1-methyl-1H-pyrrolo[2,3-b]pyridin-2-yl)ethyl)piperidin-4-yl)-3-methyl-N,N-bis(methyl-d3)benzamide] | 5.85 |
| [2H]C([2H])([2H])N(C(=O)c1ccc(C2CCN([C@@H](C)c3cc4c(-c5ccc(NCCOC)nc5)ccnc4n3C)CC2)cc1)C([2H])([2H])[2H] [Example 1af50, (S)-4-(1-(1-(4-(6-((2-methoxyethyl)amino)pyridin-3-yl)-1-methyl-1H-pyrrolo[2,3-b]pyridin-2-yl)ethyl)piperidin-4-yl)-N,N-bis(methyl-d3)benzamide] | 6.33 |
| [2H]C([2H])([2H])N(C(=O)c1ccc(C2=CCN([C@@H](C)c3cc4c(-c5ncc(N)cc5F)ccnc4n3C)CC2)cc1)C([2H])([2H])[2H] [Example 1af51, (S)-4-(1-(1-(4-(5-Amino-3-fluoropyridin-2-yl)-1-methyl-1H-pyrrolo[2,3-b]pyridin-2-yl)ethyl)-1,2,3,6-tetrahydropyridin-4-yl)-N,N-bis(methyl-d3)benzamide] | 5.78 |
| [2H]C([2H])([2H])N(C(=O)c1ccc(C2=CCN([C@@H](C)c3cc4c(-c5ncc(N)cc5C)ccnc4n3C)CC2)cc1)C([2H])([2H])[2H] [Example 1af53, (S)-4-(1-(1-(4-(5-Amino-3-methylpyridin-2-yl)-1-methyl-1H-pyrrolo[2,3-b]pyridin-2-yl)ethyl)-1,2,3,6-tetrahydropyridin-4-yl)-N,N-bis(methyl-d3)benzamide] | 6.12 |
| [2H]C([2H])([2H])N(C(=O)c1ccc(C2=CCN([C@@H](C)c3cc4c(-c5ccc(N)c(F)n5)ccnc4n3C)CC2)cc1)C([2H])([2H])[2H] [Example 1af54, (S)-4-(1-(1-(4-(5-Amino-6-fluoropyridin-2-yl)-1-methyl-1H-pyrrolo[2,3-b]pyridin-2-yl)ethyl)-1,2,3,6-tetrahydropyridin-4-yl)-N,N-bis(methyl-d3)benzamide] | 6.27 |
| [2H]C([2H])([2H])N(C(=O)c1ccc(C2=CCN([C@@H](C)c3cc4c(-c5cnc(N)cc5F)ccnc4n3C)CC2)cc1)C([2H])([2H])[2H] [Example 1af55, (S)-4-(1-(1-(4-(6-Amino-4-fluoropyridin-3-yl)-1-methyl-1H-pyrrolo[2,3-b]pyridin-2-yl)ethyl)-1,2,3,6-tetrahydropyridin-4-yl)-N,N-bis(methyl-d3)benzamide] | 6.37 |
| [2H]C([2H])([2H])N(C(=O)c1ccc(C2=CCN([C@@H](C)c3cc4c(-c5cnc(N)c(F)c5)ccnc4n3C)CC2)cc1)C([2H])([2H])[2H] [Example 1af56, (S)-4-(1-(1-(4-(6-Amino-5-fluoropyridin-3-yl)-1-methyl-1H-pyrrolo[2,3-b]pyridin-2-yl)ethyl)-1,2,3,6-tetrahydropyridin-4-yl)-N,N-bis(methyl-d3)benzamide] | 6.14 |
| [2H]C([2H])([2H])N(C(=O)c1ccc(C2=CCN([C@@H](C)c3cc4c(-c5ncc(N)cc5C(F)(F)F)ccnc4n3C)CC2)cc1)C([2H])([2H])[2H] [Example 1af57, (S)-4-(1-(1-(4-(5-Amino-3-(trifluoromethyl)pyridin-2-yl)-1-methyl-1H-pyrrolo[2,3-b]pyridin-2-yl)ethyl)-1,2,3,6-tetrahydropyridin-4-yl)-N,N-bis(methyl-d3)benzamide] | 4.75 |
| [2H]C([2H])([2H])N(C(=O)c1ccc(C2=CCN([C@@H](C)c3cc4c(-c5cnc(N)c(C)c5)ccnc4n3C)CC2)cc1)C([2H])([2H])[2H] [Example 1af58, (S)-4-(1-(1-(4-(6-Amino-5-methylpyridin-3-yl)-1-methyl-1H-pyrrolo[2,3-b]pyridin-2-yl)ethyl)-1,2,3,6-tetrahydropyridin-4-yl)-N,N-bis(methyl-d3)benzamide] | 6.20 |
| [2H]C([2H])([2H])N(C(=O)c1ccc(C2=CCN([C@@H](C)c3cc4c(-c5ccc(N)nn5)ccnc4n3C)CC2)cc1)C([2H])([2H])[2H] [Example 1af59, (S)-4-(1-(1-(4-(6-aminopyridazin-3-yl)-1-methyl-1H-pyrrolo[2,3-b]pyridin-2-yl)ethyl)-1,2,3,6-tetrahydropyridin-4-yl)-N,N-bis(methyl-d3)benzamide] | 6.59 |
| [2H]C([2H])([2H])N(C(=O)c1ccc(C2=CCN([C@@H](C)c3cc4c(-c5ccc(NC)nn5)ccnc4n3C)CC2)cc1)C([2H])([2H])[2H] [Example 1af60, (S)—N,N-bis(methyl-d3)-4-(1-(1-(1-methyl-4-(6-(methylamino)pyridazin-3-yl)-1H-pyrrolo[2,3-b]pyridin-2-yl)ethyl)-1,2,3,6-tetrahydropyridin-4-yl)benzamide] | 5.89 |
| [2H]C([2H])([2H])N(C(=O)c1ccc(C2CCN([C@@H](C)c3cc4c(-c5cnc(N)nn5)ccnc4n3C)CC2)cc1)C([2H])([2H])[2H] [Example 1af64, (S)-4-(1-(1-(4-(3-amino-1,2,4-triazin-6-yl)-1-methyl-1H-pyrrolo[2,3-b]pyridin-2-yl)ethyl)piperidin-4-yl)-N,N-bis(methyl-d3)benzamide] | 5.50 |
| [2H]C([2H])([2H])N(C(=O)c1ccc(C2CCN([C@@H](C)c3cc4c(-c5ccc(N)c(C)n5)ccnc4n3C)CC2)cc1)C([2H])([2H])[2H] [Example 1af66, (S)-4-(1-(1-(4-(5-amino-6-methylpyridin-2-yl)-1-methyl-1H-pyrrolo[2,3-b]pyridin-2-yl)ethyl)piperidin-4-yl)-N,N-bis(methyl-d3)benzamide] | 6.21 |
| [2H]C([2H])([2H])N(C(=O)c1ccc(C2CCN([C@@H](C)c3cc4c(-c5ccc(N)nc5OC)ccnc4n3C)CC2)cc1)C([2H])([2H])[2H] [Example 1af67, (S)-4-(1-(1-(4-(6-amino-2-methoxypyridin-3-yl)-1-methyl-1H-pyrrolo[2,3-b]pyridin-2-yl)ethyl)piperidin-4-yl)-N,N-bis(methyl-d3)benzamide] | 7.01 |
| [2H]C([2H])([2H])N(C(=O)c1ccc(C2CCN([C@@H](C)c3cc4c(-c5ncc(N)cc5OC)ccnc4n3C)CC2)cc1)C([2H])([2H])[2H] [Example 1af68, (S)-4-(1-(1-(4-(5-amino-3-methoxypyridin-2-yl)-1-methyl-1H-pyrrolo[2,3-b]pyridin-2-yl)ethyl)piperidin-4-yl)-N,N-bis(methyl-d3)benzamide] | 5.96 |
| [2H]C([2H])([2H])N(C(=O)c1ccc(C2CCN([C@@H](C)c3cc4c(-c5ccc(NCCO)nc5)ccnc4n3C)CC2)cc1)C([2H])([2H])[2H] [Example 1af69, (S)-4-(1-(1-(4-(6-((2-hydroxyethyl)amino)pyridin-3-yl)-1-methyl-1H-pyrrolo[2,3-b]pyridin-2-yl)ethyl)piperidin-4-yl)-N,N-bis(methyl-d3)benzamide] | 6.58 |
| [2H]C([2H])([2H])N(C(=O)c1cnc(C2=CCN(Cc3cc4c(-c5ccc(N)nc5)ccnc4n3C)CC2)nc1)C([2H])([2H])[2H] [Example 1af73, 2-(1-((4-(6-Aminopyridin-3-yl)-1-methyl-1H-pyrrolo[2,3-b]pyridin-2-yl)methyl)-1,2,3,6-tetrahydropyridin-4-yl)-N,N-bis(methyl-d3)pyrimidine-5-carboxamide] | 7.33 |
| CN(C)C(=O)c1cc(F)c(C2=CCN(Cc3cc4c(-c5ccc(N)nn5)ccnc4n3C)CC2)c(Cl)c1 [Example 1af75, 4-(1-((4-(6-Aminopyridazin-3-yl)-1-methyl-1H-pyrrolo[2,3-b]pyridin-2-yl)methyl)-1,2,3,6-tetrahydropyridin-4-yl)-3-chloro-5-fluoro-N,N-dimethylbenzamide] | 6.80 |
| Cc1cc(C(=O)N(C)C)ccc1C1=CCN(Cc2cc3c(-c4ccc(N)nn4)ccnc3n2C)CC1 [Example 1af76, 4-(1-((4-(6-Aminopyridazin-3-yl)-1-methyl-1H-pyrrolo[2,3-b]pyridin-2-yl)methyl)-1,2,3,6-tetrahydropyridin-4-yl)-N,N,3-trimethylbenzamide] | 6.51 |
| CN(C)C(=O)c1ccc(C2=CCN(Cc3cc4c(-c5ccc(N)nn5)ccnc4n3C)CC2)c(Cl)c1 [Example 1af77, 4-(1-((4-(6-Aminopyridazin-3-yl)-1-methyl-1H-pyrrolo[2,3-b]pyridin-2-yl)methyl)-1,2,3,6-tetrahydropyridin-4-yl)-3-chloro-N,N-dimethylbenzamide] | 6.06 |
| CN(C)C(=O)c1ccc(C2=CCN(Cc3cc4c(-c5ccc(N)nn5)ccnc4n3C)CC2)nc1 [Example 1af78, 1′-((4-(6-Aminopyridazin-3-yl)-1-methyl-1H-pyrrolo[2,3-b]pyridin-2-yl)methyl)-N,N-dimethyl-1′,2′,3′,6′-tetrahydro-[2,4′-bipyridine]-5-carboxamide] | 6.07 |
